Reference: ChEMBL document CHEMBL3046101, “Synthesis and Biological Activity of 1,2-Dithiolanes and 1,2-Dithianes Bearing a Nitrogen-containing Substituent” (1992)

Experiments:
Format in all cases: functional
[1] = tested on: Tetranychus urticae; test: Acaricidal activity against Tetranychus urticae (two-spotted spider mite) assessed as mortality at 500 ppm
[2] = tested on: Spodoptera litura; test: Insecticidal activity against Spodoptera litura assessed as mortality at 500 ppm
[3] = tested on: Chilo suppressalis; test: Insecticidal activity against Chilo suppressalis (rice stem borer) assessed as mortality at 50 ug/g administered as topical application
[4] = tested on: Nilaparvata lugens; test: Insecticidal activity against Nilaparvata lugens (brown planthopper) assessed as mortality at 50 ppm
[5] = tested on: Culex pipiens molestus; test: Insecticidal activity against Culex pipiens molestus assessed as mortality at 5 ppm
[6] = tested on: Chilo suppressalis; test: Insecticidal activity against Chilo suppressalis (rice stem borer) assessed as mortality compound administered as topical application
[7] = tested on: Tetranychus urticae; test: Acaricidal activity against Tetranychus urticae (two-spotted spider mite) assessed as mortality

CN(C)CC1CCCSS1.O=C(O)C(=O)O (stereo not drawn)
mortality at 500 ppm [1]: 20% | mortality at 500 ppm [2]: 0% | mortality [3]: 0% | mortality at 50 ppm [4]: 50% | mortality at 5 ppm [5]: 0%

CN(C)N(C)C1CSSC1.O=C(O)C(=O)O
LD50 [6]: 15 mg/kg | mortality at 500 ppm [1]: 100% | mortality at 500 ppm [2]: 0% | mortality [3]: 100% | mortality at 50 ppm [4]: 60% | mortality at 5 ppm [5]: 100%

CN(C)CC1CCC(CN(C)C)SS1.O=C(O)C(=O)O (stereo not drawn)
mortality at 500 ppm [1]: 100% | mortality at 500 ppm [2]: 0% | mortality [3]: 0% | mortality at 50 ppm [4]: 0% | mortality at 5 ppm [5]: 0%

CC1CSSC1CN(C)C.O=C(O)C(=O)O (stereo not drawn)
LD50 [6]: 50 mg/kg | mortality at 500 ppm [1]: 100% | LC50 [7]: 209 µg/mL | mortality at 500 ppm [2]: 0% | mortality [3]: 80% | mortality at 50 ppm [4]: 75% | mortality at 5 ppm [5]: 0%

CN(C)CC1CSSC1.O=C(O)C(=O)O
mortality at 500 ppm [1]: 100% | LC50 [7]: 88 µg/mL | mortality at 500 ppm [2]: 90% | mortality [3]: 100% | mortality at 50 ppm [4]: 100% | mortality at 5 ppm [5]: 100%

CN1CCCCC1C1CSSC1.O=C(O)C(=O)O (stereo not drawn)
mortality at 500 ppm [1]: 100% | mortality at 500 ppm [2]: 10% | mortality [3]: 70% | mortality at 50 ppm [4]: 100% | mortality at 5 ppm [5]: 95%

CN(C)CCCC1CSSC1.O=C(O)C(=O)O
mortality at 500 ppm [1]: 100% | mortality at 500 ppm [2]: 0% | mortality [3]: 60% | mortality at 50 ppm [4]: 10% | mortality at 5 ppm [5]: 40%

CN(C)NC1CSSC1.O=C(O)C(=O)O
LD50 [6]: 36.2 mg/kg | mortality at 500 ppm [1]: 100% | mortality at 500 ppm [2]: 0% | mortality [3]: 100% | mortality at 50 ppm [4]: 45% | mortality at 5 ppm [5]: 25%

CN(C)CCC1CCSS1.O=C(O)C(=O)O (stereo not drawn)
LD50 [6]: 23.2 mg/kg | mortality at 500 ppm [1]: 100% | LC50 [7]: 126 µg/mL | mortality at 500 ppm [2]: 0% | mortality [3]: 100% | mortality at 50 ppm [4]: 20% | mortality at 5 ppm [5]: 100%

CN(C)CCC1CSSC1.O=C(O)C(=O)O
LD50 [6]: 28.1 mg/kg | mortality at 500 ppm [1]: 100% | mortality at 500 ppm [2]: 40% | mortality [3]: 100% | mortality at 50 ppm [4]: 100% | mortality at 5 ppm [5]: 95%

CN(C)C[C@H]1C[C@H](CN(C)C)SS1.O=C(O)C(=O)O (relative stereo)
mortality at 500 ppm [1]: 90% | LC50 [7]: 116 µg/mL | mortality at 500 ppm [2]: 0% | mortality [3]: 0% | mortality at 50 ppm [4]: 20% | mortality at 5 ppm [5]: 0%

O=C(O)C(=O)O.c1ccc(C2CSSC2)nc1
mortality at 500 ppm [1]: 100% | mortality at 500 ppm [2]: 0% | mortality [3]: 10% | mortality at 50 ppm [4]: 70% | mortality at 5 ppm [5]: 100%

CN(C)C1CSSC1.O=C(O)C(=O)O [NEREISTOXIN HYDROGEN OXALATE]
LD50 [6]: 1.7 mg/kg | mortality at 500 ppm [1]: 50% | LC50 [7]: 603 µg/mL | mortality at 500 ppm [2]: 30% | mortality [3]: 100% | mortality at 50 ppm [4]: 100% | mortality at 5 ppm [5]: 100%

CN(C)CC1(C)CSSC1.O=C(O)C(=O)O
mortality at 500 ppm [1]: 90% | mortality at 500 ppm [2]: 40% | mortality [3]: 70% | mortality at 50 ppm [4]: 100% | mortality at 5 ppm [5]: 100%

CC1CC(CN(C)C)SS1.O=C(O)C(=O)O (stereo not drawn)
mortality at 500 ppm [1]: 100% | mortality at 500 ppm [2]: 20% | mortality [3]: 80% | mortality at 50 ppm [4]: 95% | mortality at 5 ppm [5]: 0%

CC(C)C1CSSC1
mortality at 500 ppm [1]: 50% | mortality at 500 ppm [2]: 20% | mortality [3]: 20% | mortality at 50 ppm [4]: 0% | mortality at 5 ppm [5]: 0%

CN(C)CCCCC1CSSC1.O=C(O)C(=O)O
mortality at 500 ppm [1]: 100% | mortality at 500 ppm [2]: 0% | mortality [3]: 0% | mortality at 50 ppm [4]: 20% | mortality at 5 ppm [5]: 75%

CN(C)CC1CCSS1.O=C(O)C(=O)O (stereo not drawn)
LD50 [6]: 4.3 mg/kg | mortality at 500 ppm [1]: 100% | mortality at 500 ppm [2]: 30% | mortality [3]: 100% | mortality at 50 ppm [4]: 80% | mortality at 5 ppm [5]: 100%

CN(C)C[C@H]1C[C@@H](CN(C)C)SS1.O=C(O)C(=O)O
mortality at 500 ppm [1]: 100% | LC50 [7]: 20 µg/mL | mortality at 500 ppm [2]: 30% | mortality [3]: 0% | mortality at 50 ppm [4]: 5% | mortality at 5 ppm [5]: 0%

O=C(O)C(=O)O.O=[N+]([O-])c1cccc2c1SSC2
mortality at 500 ppm [1]: 100% | mortality at 500 ppm [2]: 30% | mortality [3]: 10% | mortality at 50 ppm [4]: 80% | mortality at 5 ppm [5]: 95%
